Data published in PMC12908707, “Pharmacodynamic effects and plasma pharmacokinetics of N, N-dimethyltryptamine after intranasal versus subcutaneous administration in male rats” (Psychopharmacology, 2025).
Where two headings read alike, the source gives them in different places.

Tests used:
rats [1] = test system: rats; parameters: method as in Baumann and Rothman [1996]; Elmore et al. [2018]; conditions: SC, dose-related increases, ref Baumann and Rothman [1996], Elmore et al. [2018]; cited from earlier work
rats [2] = test system: rats; parameters: method as in Lucki et al. ([1984]); conditions: intraperitoneal (IP), ref Lucki et al. ([1984]); cited from earlier work
male and female rats = test system: male and female rats; parameters: method as in Tylš et al. [2016]; conditions: SC, ref Tylš et al. [2016]; cited from earlier work
[3] = Plasma pharmacokinetics of DMT and DMT N-oxide after IN or SC DMT (LC-QQQ-MS, non-compartmental analysis); type: in vivo, male Sprague-Dawley rats; conditions: for AUC / Tmax / Cmax / half-life: male, Sprague-Dawley, rat, plasma DMT; for Cmax / half-life: plasma
Method: For the IN DMT experiments, blood samples (300 µL) were withdrawn via IV catheters immediately before (time zero) and at 5, 10, 20, 40, and 80 min after injection. For the SC DMT experiments, blood samples were withdrawn immediately before (time zero) and at 10, 20, 40, 80, and 160 min after injection. Samples were collected into 1 mL tuberculin syringes and transferred to 1.5 mL plastic tubes containing 5 µL of 1000 IU/mL heparin (Thomas Scientific) as an anticoagulant and 5 µL of 250 mM sodium metabisulfite as a preservative. Blood was centrifuged at 1000 g for 10 min at 4 °C. Plasma was decanted into cryovials and stored at − 80 °C until analysis. To maintain volume and osmotic homeostasis, rats received an equal volume of saline solution via the IV catheter after each blood withdrawal.
Samples were extracted using a basic solid phase extraction (SPE) procedure. Spiking solutions (final concentrations 0.1, 1.0 and 10 ng/µL) contained all analytes and were prepared by serial dilution in methanol from stock solutions. Calibration curves contained eight non-zero calibrators from 5 to 1000 ng/mL. Quality controls were assessed at 15, 60, 150, and 800 ng/mL. DMT-D4 (25 µL, 1.0 ng/µL) was utilized as the internal standard. Authentic rat plasma samples were stored at −80 °C prior to analysis.
Drug-free rat plasma was fortified with appropriate spiking solutions and aliquoted (150 µL) for extraction. Authentic rat plasma was assayed at 150 µL. Internal standard was added at a final concentration of 125 ng/mL. Samples were diluted with 1 mL phosphate buffer (0.1 M, pH 6) followed by centrifugation for 5 min at 4200 rpm, then extracted using Chromabond® SPE cartridges (200 mg, 3 mL)(Macherey-Nagel, Allentown, PA, USA). The columns were conditioned using methanol (2 mL), deionized water (2 mL), and phosphate buffer (0.1 M, pH 6, 2 mL). The buffered sample was added to the columns and impurities were removed using deionized water (1 mL), acetic acid (0.1 M, 1 mL), and methanol (1 mL). Analytes were eluted using 3 mL of dichloromethane: isopropanol: ammonia (78:20:2, v: v:v). The organic solvent was evaporated to dryness under nitrogen at 33 °C. Samples were reconstituted in 100 µL of initial mobile phase conditions (90 A:10B).

male Sprague-Dawley rats [4] = assay: Behavioral scoring: motor activity (summed motor scores); type: in vivo; conditions: IN or SC, 1, 3, 10 mg/kg; Dunnett's post hoc test
male Sprague-Dawley rats [5] = assay: Behavioral scoring: flat body posture (element of the 5-HT syndrome); type: in vivo
male Sprague-Dawley rats [6] = assay: Behavioral scoring: wet dog shakes (proxy for 5-HT2A activation); type: in vivo; conditions: SC, 1 and 3 mg/kg
male Sprague-Dawley rats [7] = assay: Core body temperature by SC temperature transponder
[8] = inhaled or intranasal, 1 mg/kg IN, mean ± SEM, n = 5 rats
[9] = inhaled or intranasal, 3 mg/kg IN, mean ± SEM, n = 5 rats
[10] = inhaled or intranasal, 10 mg/kg IN, mean ± SEM, n = 5 rats
[11] = 1 mg/kg SC, mean ± SEM, n = 5 rats
[12] = 3 mg/kg SC, mean ± SEM, n = 5 rats
[13] = 10 mg/kg SC, mean ± SEM, n = 5 rats

SMILES: COc1cc(CCN)c(OC)cc1I [2 C-I, 2-(4-iodo-2,5-dimethoxyphenyl)ethanamine]
- wet dog shakes (rats [1]): more than ten episodes per hour

SMILES: COc1ccc2[nH]cc(CCN(C)C)c2c1 [5-MeO-DMT, 5-methoxy-N, N-dimethyltryptamine]
- 5-HT behavioral syndrome (rats [2]): produces the 5-HT behavioral syndrome

SMILES: CN(C)CCc1c[nH]c2cccc(O)c12 [psilocin, 4-hydroxy-N, N-dimethyltryptamine]
- flat body posture (male and female rats): causes flat body posture

SMILES: CN(C)CCc1c[nH]c2ccccc12 [DMT, N,N-dimethyltryptamine]
- predicted AUC ([3]; 10 mg/kg IN, ~3.3-times the measured AUC at 3 mg/kg): 2950 ng·min/mL
- plasma concentrations of DMT by 80 min post-treatment ([3]; after all doses of IN DMT): below the LOD, or nearly so
- AUC [3, 8]: 6.08 ng·h/mL
- Tmax [3, 8]: 5 min
- AUC [3, 9]: 14.9 ng·h/mL
- Tmax [3, 9]: 6 min
- AUC [3, 10]: 93.8 ng·h/mL
- Tmax [3, 10]: 7 min
- Cmax ([3]; inhaled or intranasal, 1 mg/kg, 1 mg/kg IN, mean ± SEM, n = 5 rats, read-out: Cmax): 30.1 ± 7.6 ng/mL
- half-life ([3]; inhaled or intranasal, 1 mg/kg, 1 mg/kg IN, mean ± SEM, n = 5 rats, read-out: t1/2): 12.9 ± 2.8 min
- Cmax ([3]; inhaled or intranasal, 3 mg/kg, 3 mg/kg IN, mean ± SEM, n = 5 rats, read-out: Cmax): 55.6 ± 15.4 ng/mL
- half-life ([3]; inhaled or intranasal, 3 mg/kg, 3 mg/kg IN, mean ± SEM, n = 5 rats, read-out: t1/2): 14.3 ± 1.9 min
- Cmax ([3]; inhaled or intranasal, 10 mg/kg, 10 mg/kg IN, mean ± SEM, n = 5 rats, read-out: Cmax): 268 ± 50.7 ng/mL
- half-life ([3]; inhaled or intranasal, 10 mg/kg, 10 mg/kg IN, mean ± SEM, n = 5 rats, read-out: t1/2): 11.9 ± 1.4 min
- Cmax ([3]; other: IN (intranasal, infused into the nares), 3 mg/kg, low IN doses (1 and 3 mg/kg), read-out: maximal DMT concentrations (Cmax) after low IN doses): 30.2 to 55.6 ng/mL
- half-life ([3]; other: IN (intranasal, infused into the nares), 10 mg/kg, IN route, across 1, 3 and 10 mg/kg, read-out: t1/2 range): 11.9 to 14.3 min
- Cmax ([3]; sc, 1 mg/kg, 1 mg/kg SC, mean ± SEM, n = 5 rats, read-out: Cmax): 19.6 ± 2.2 ng/mL
- half-life ([3]; sc, 1 mg/kg, 1 mg/kg SC, mean ± SEM, n = 5 rats, read-out: t1/2): 45.5 ± 9.5 min
- Cmax ([3]; sc, 3 mg/kg, 3 mg/kg SC, mean ± SEM, n = 5 rats, read-out: Cmax): 35.8 ± 2.4 ng/mL
- half-life ([3]; sc, 3 mg/kg, 3 mg/kg SC, mean ± SEM, n = 5 rats, read-out: t1/2): 91.7 ± 26.4 min
- Cmax ([3]; sc, 10 mg/kg, 10 mg/kg SC, mean ± SEM, n = 5 rats, read-out: Cmax): 81.6 ± 11.1 ng/mL
- half-life ([3]; sc, 10 mg/kg, 10 mg/kg SC, mean ± SEM, n = 5 rats, read-out: t1/2): 123 ± 36.4 min
- half-life ([3]; sc, 10 mg/kg, SC route, across 1, 3 and 10 mg/kg, read-out: t1/2 range): 45.5 to 123 min
- AUC [3, 11]: 16.4 ng·h/mL
- Tmax [3, 11]: 14 min
- AUC [3, 12]: 47.7 ng·h/mL
- Tmax [3, 12]: 22 min
- AUC [3, 13]: 158 ng·h/mL
- Tmax [3, 13]: 64 min
- summed motor scores vs vehicle controls (male Sprague-Dawley rats [4]): no significant differences
- flat body posture vs vehicle (male Sprague-Dawley rats [5]; IN, 3 and 10 mg/kg): increased above vehicle
- flat body posture vs vehicle (male Sprague-Dawley rats [5]; SC, only at 10 mg/kg): increased
- wet dog shakes vs vehicle (male Sprague-Dawley rats [6]): increased compared to vehicle
- body temperature nadir (hypothermic effect) (male Sprague-Dawley rats [7]; 10 mg/kg IN, sustained throughout the sampling period (80 min)): 34.4 °C
- body temperature nadir (hypothermic effect) (male Sprague-Dawley rats [7]; 10 mg/kg SC, subsided by end of sampling period (160 min)): 34.2 °C
- body temperature vs saline controls (male Sprague-Dawley rats [7]; IN, all doses, by 20 min post-treatment): significantly reduced temperature

SMILES: COc1cc(CC(C)N)c(OC)cc1I (centres unmarked) [DOI, 1-(4-iodo-2,5-dimethoxyphenyl)propan-2-amine]
- wet dog shakes (rats [1]): more than ten episodes per hour

SMILES: C[N+](C)([O-])CCc1c[nH]c2ccccc12 [DMT N-oxide]
- plasma concentrations of DMT N-oxide by 80 min post-treatment ([3]; after all doses of IN DMT): either undetectable or very low
